Test results reported in patent publication US20250382344A1, “Soluble GLP1/GIP/NPY2 Receptor Triple Agonists” (Boehringer Ingelheim International GmH, priority 2024, published 2025).
Like-named read-outs stand apart in the source and are kept apart here. Where a SMILES comes first, the peptide text is derived from it. Side-chain parts run from the residue outwards. [ ]: non-standard residue; d: D form. The star is where a group is joined. ξ: configuration not given here. C18 diacid = O=C(O)CCCCCCCCCCCCCCCCC(=O)*; αMeF = C[C@](N)(Cc1ccccc1)C(=O)O; ξIva = CCC(C)(N)C(=O)O; Aib = CC(C)(N)C(=O)O

Test: Solubility in 0.1 M phosphate buffer at pH 7
Type: physicochemical
Conditions: 0.1 M phosphate buffer at pH 7, 10 mg/mL final peptide concentration, shaking 2 hours at room temperature, peptides as TFA-salts, measured sample pH 6.5-7.0

| SMILES | solubility (read-out: Solubility) | solubility | solubility at 2 h |
| --- | --- | --- | --- |
| CC[C@H](C)[C@H](NC(=O)[C@H](CC(C)C)NC(=O)[C@H](Cc1c[nH]cn1)NC(=O)[C@H](CCCNC(=N)N)NC(=O)[C@@H](NC(=O)[C@H](Cc1ccccc1)NC(=O)[C@H](C)NC(=O)C(C)(C)NC(=O)[C@H](C)NC(=O)[C@H](C)NC(=O)[C@H](CCC(N)=O)NC(=O)[C@H](CCCCN)NC(=O)[C@H](CCC(=O)O)NC(=O)[C@H](CC(C)C)NC(=O)C(C)(C)NC(=O)[C@@H](NC(=O)[C@H](CO)NC(=O)[C@H](Cc1ccc(O)cc1)NC(=O)[C@H](CC(=O)O)NC(=O)[C@H](CO)NC(=O)[C@@H](NC(=O)[C@H](Cc1ccccc1)NC(=O)[C@@H](NC(=O)CNC(=O)[C@H](CCC(=O)O)NC(=O)C(C)(C)NC(=O)[C@@H](N)Cc1ccc(O)cc1)[C@@H](C)O)[C@@H](C)O)[C@@H](C)CC)C(C)C)C(=O)N[C@@H](CC(N)=O)C(=O)N[C@@H](CCCCNC(=O)[C@@H](N)CCCCNC(=O)CC[C@H](NC(=O)CC[C@H](NC(=O)CC[C@H](NC(=O)CC[C@H](NC(=O)CC[C@H](NC(=O)CC[C@H](NC(=O)CCCCCCCCCCCCCCCCC(=O)O)C(=O)O)C(=O)O)C(=O)O)C(=O)O)C(=O)O)C(=O)O)C(=O)NC(C)(C)C(=O)N[C@H](C(=O)N[C@@H](CCCNC(=N)N)C(=O)N[C@@H](CCC(N)=O)C(=O)N[C@@H](CCCNC(=N)N)C(=O)N[C@@H](Cc1ccc(O)cc1)C(N)=O)[C@@H](C)O [Compound 111, Y-Aib-E-G-T-F-T-S-D-Y-S-I-Aib-L-E-K-Q-A-A-Aib-A-F-V-R-H-L-I-N-K(1,3)-Aib-T-R-Q-R-Y-NH2.C18DA-gGlu-gGlu-gGlu-gGlu-gGlu-gGlu-eLys(1,2)] | 4000 µg/mL |  |  |
| CC[C@H](C)[C@H](NC(=O)[C@H](CC(C)C)NC(=O)[C@H](Cc1c[nH]cn1)NC(=O)[C@H](CCCNC(=N)N)NC(=O)[C@@H](NC(=O)[C@H](Cc1ccccc1)NC(=O)[C@H](C)NC(=O)C(C)(C)NC(=O)[C@H](CCC(N)=O)NC(=O)[C@H](C)NC(=O)[C@H](CCC(N)=O)NC(=O)[C@H](CCC(=O)O)NC(=O)[C@H](CC(=O)O)NC(=O)[C@H](CC(C)C)NC(=O)C(C)(C)NC(=O)[C@@H](NC(=O)[C@H](CO)NC(=O)[C@H](Cc1ccc(O)cc1)NC(=O)[C@H](CC(=O)O)NC(=O)[C@H](CO)NC(=O)[C@@H](NC(=O)[C@H](Cc1ccccc1)NC(=O)[C@@H](NC(=O)CNC(=O)[C@H](CCC(=O)O)NC(=O)C(C)(C)NC(=O)[C@@H](N)Cc1ccc(O)cc1)[C@@H](C)O)[C@@H](C)O)[C@@H](C)CC)C(C)C)C(=O)N[C@@H](CC(N)=O)C(=O)N[C@@H](CCCCNC(=O)[C@@H](N)CCCCNC(=O)CC[C@H](NC(=O)CC[C@H](NC(=O)CC[C@H](NC(=O)CC[C@H](NC(=O)CC[C@H](NC(=O)CCCCCCCCCCCCCCCCC(=O)O)C(=O)O)C(=O)O)C(=O)O)C(=O)O)C(=O)O)C(=O)NC(C)(C)C(=O)N[C@H](C(=O)N[C@@H](CCCNC(=N)N)C(=O)N[C@@H](CCC(N)=O)C(=O)N[C@@H](CCCNC(=N)N)C(=O)N[C@@H](Cc1ccc(O)cc1)C(N)=O)[C@@H](C)O [Compound 108, Y-Aib-E-G-T-F-T-S-D-Y-S-I-Aib-L-D-E-Q-A-Q-Aib-A-F-V-R-H-L-I-N-K(1,3)-Aib-T-R-Q-R-Y-NH2.C18DA-gGlu-gGlu-gGlu-gGlu-gGlu-eLys(1,2)] | 9200 µg/mL |  |  |
| CC[C@H](C)[C@H](NC(=O)[C@H](CO)NC(=O)[C@H](CCCCNC(=O)CNC(=O)CNC(=O)CNC(=O)CNC(=O)CCCCCCCCCCCCCCCCC(=O)O)NC(=O)[C@H](CC(=O)O)NC(=O)[C@H](CO)NC(=O)[C@@H](NC(=O)[C@](C)(Cc1ccccc1)NC(=O)[C@@H](NC(=O)CNC(=O)[C@H](CCC(=O)O)NC(=O)C(C)(C)NC(=O)[C@@H](N)Cc1ccc(O)cc1)[C@@H](C)O)[C@@H](C)O)C(=O)NC(C)(C)C(=O)N[C@@H](CC(C)C)C(=O)N[C@@H](CCC(=O)O)C(=O)N[C@@H](CCCCN)C(=O)N[C@@H](CCC(N)=O)C(=O)N[C@@H](CCCNC(=N)N)C(=O)N[C@@H](CCC(N)=O)C(=O)NC(C)(CC)C(=O)N[C@@H](CCC(=O)O)C(=O)N[C@@H](Cc1ccccc1)C(=O)N[C@H](C(=O)N[C@@H](CCCNC(=N)N)C(=O)N[C@@H](Cc1c[nH]cn1)C(=O)N[C@@H](CC(C)C)C(=O)N[C@@H](CC(C)C)C(=O)N[C@@H](CC(N)=O)C(=O)N[C@@H](CCCCN)C(=O)NC(C)(C)C(=O)N[C@H](C(=O)N[C@@H](CCCNC(=N)N)C(=O)N[C@@H](CCC(N)=O)C(=O)N[C@@H](CCCNC(=N)N)C(=O)N[C@@H](Cc1ccc(O)cc1)C(N)=O)[C@@H](C)O)C(C)C (stereo partly drawn) [Ref. 3, Y-Aib-E-G-T-aMeF-T-S-D-K(1,3)-S-I-Aib-L-E-K-Q-R-Q-Iva-E-F-V-R-H-L-L-N-K-Aib-T-R-Q-R-Y-NH2.C18DA-G-G-G-G(1,2), reference compound] (H-Y[Aib]EGT[αMeF]TSDK([Gly-Gly-Gly-Gly-C18 diacid])SI[Aib]LEKQRQ[ξIva]EFVRHLLNK[Aib]TRQRY-NH2) |  | <1000 µg/mL | < 1000 µg/mL |

Results, then the compound that gave them:

| solubility (read-out: Solubility) | solubility | solubility at 2 h | SMILES |
| --- | --- | --- | --- |
|  |  | 5000 µg/mL | CC[C@H](C)[C@H](NC(=O)[C@H](CC(C)C)NC(=O)[C@H](Cc1c[nH]cn1)NC(=O)[C@H](CCCNC(=N)N)NC(=O)[C@@H](NC(=O)[C@H](Cc1ccccc1)NC(=O)[C@H](C)NC(=O)C(C)(C)NC(=O)[C@H](CCC(N)=O)NC(=O)[C@H](CCC(=O)O)NC(=O)[C@H](CCC(N)=O)NC(=O)[C@H](CCCCN)NC(=O)[C@H](CCC(=O)O)NC(=O)[C@H](CC(C)C)NC(=O)C(C)(C)NC(=O)[C@@H](NC(=O)[C@H](CO)NC(=O)[C@H](Cc1ccc(O)cc1)NC(=O)[C@H](CC(=O)O)NC(=O)[C@H](CO)NC(=O)[C@@H](NC(=O)[C@H](Cc1ccccc1)NC(=O)[C@@H](NC(=O)CNC(=O)[C@H](CCC(=O)O)NC(=O)C(C)(C)NC(=O)[C@@H](N)Cc1ccc(O)cc1)[C@@H](C)O)[C@@H](C)O)[C@@H](C)CC)C(C)C)C(=O)N[C@@H](CC(N)=O)C(=O)N[C@@H](CCCCNC(=O)[C@@H](N)CCCCNC(=O)CC[C@H](NC(=O)CC[C@H](NC(=O)CC[C@H](NC(=O)CC[C@H](NC(=O)CC[C@H](NC(=O)CC[C@H](NC(=O)CCCCCCCCCCCCCCCCC(=O)O)C(=O)O)C(=O)O)C(=O)O)C(=O)O)C(=O)O)C(=O)O)C(=O)NC(C)(C)C(=O)N[C@H](C(=O)N[C@@H](CCCNC(=N)N)C(=O)N[C@@H](CCC(N)=O)C(=O)N[C@@H](CCCNC(=N)N)C(=O)N[C@@H](Cc1ccc(O)cc1)C(N)=O)[C@@H](C)O [Compound 36, Y-Aib-E-G-T-F-T-S-D-Y-S-I-Aib-L-E-K-Q-E-Q-Aib-A-F-V-R-H-L-I-N-K(1,3)-Aib-T-R-Q-R-Y-NH2.C18DA-gGlu-gGlu-gGlu-gGlu-gGlu-gGlu-eLys(1,2)] |
| 9400 µg/mL |  |  | CC[C@H](C)[C@H](NC(=O)[C@H](CC(C)C)NC(=O)[C@H](Cc1c[nH]cn1)NC(=O)[C@H](CCCNC(=N)N)NC(=O)[C@@H](NC(=O)[C@H](Cc1ccccc1)NC(=O)[C@H](C)NC(=O)C(C)(C)NC(=O)[C@H](CCC(N)=O)NC(=O)[C@H](C)NC(=O)[C@H](CCC(N)=O)NC(=O)[C@H](CCCCN)NC(=O)[C@H](CCC(=O)O)NC(=O)[C@H](CC(C)C)NC(=O)C(C)(C)NC(=O)[C@@H](NC(=O)[C@H](CO)NC(=O)[C@H](Cc1ccc(O)cc1)NC(=O)[C@H](CC(=O)O)NC(=O)[C@H](CO)NC(=O)[C@@H](NC(=O)[C@H](Cc1ccccc1)NC(=O)[C@@H](NC(=O)CNC(=O)[C@H](CCC(=O)O)NC(=O)C(C)(C)NC(=O)[C@@H](N)Cc1ccc(O)cc1)[C@@H](C)O)[C@@H](C)O)[C@@H](C)CC)C(C)C)C(=O)N[C@@H](CC(N)=O)C(=O)N[C@@H](CCCCNC(=O)CC[C@H](NC(=O)CC[C@H](NC(=O)[C@@H](N)CCCCNC(=O)CC[C@H](NC(=O)CC[C@H](NC(=O)CC[C@H](NC(=O)CC[C@H](NC(=O)CCCCCCCCCCCCCCCCCCC(=O)O)C(=O)O)C(=O)O)C(=O)O)C(=O)O)C(=O)O)C(=O)O)C(=O)NC(C)(C)C(=O)N[C@H](C(=O)N[C@@H](CCCNC(=N)N)C(=O)N[C@@H](CCC(N)=O)C(=O)N[C@@H](CCCNC(=N)N)C(=O)N[C@@H](Cc1ccc(O)cc1)C(N)=O)[C@@H](C)O [Compound 52, Y-Aib-E-G-T-F-T-S-D-Y-S-I-Aib-L-E-K-Q-A-Q-Aib-A-F-V-R-H-L-I-N-K(1,3)-Aib-T-R-Q-R-Y-NH2.C20DA-gGlu-gGlu-gGlu-gGlu-eLys-gGlu-gGlu(1,2)] |
